Results as given in ChEMBL document CHEMBL4828719, “H2dpa derivatives containing pentadentate ligands: An acyclic adjuvant potentiates meropenem activity in vitro and in vivo against metallo-β-lactamase-producing Enterobacterales” (Eur J Med Chem, 2021).
In brackets after ≈: the same amount, converted by molar mass. Activity calls are given as the source filed them. The rule behind the calls is not given here.

Assays:
Klebsiella pneumoniae [1] = assay: (§1) Antibiotic adjuvant activity against meropenem-treated NDM-producing carbapenem resistant Klebsiella pneumoniae infected in BALB/c mouse sepsis model assessed as reduction of bacterial load in kidney at 10 mg/kg, ip in the presence of meropenem observed for 2 days; assay type: functional, organism-based; settings: time 2.0 day
Escherichia coli [2] = assay: Antibiotic adjuvant activity against meropenem-treated IMP-4 producing Escherichia coli DH5 alpha assessed as inhibition of bacterial growth at 8 ug/ml incubated for 16 to 20 hrs in the presence of meropenem and 1 to 10 uM zinc sulfate by CLSI based microdilution method; assay type: functional, organism-based; settings: dose 8.0 µg/ml, time 16-20 hrs
Escherichia coli [3] = assay: Antibacterial activity against VIM-1 producing Escherichia coli DH5 alpha assessed as bacterial growth at 8 ug/ml incubated for 16 to 20 hrs by CLSI based microdilution method; assay type: functional; settings: dose 8 µg/ml; time 16-20 hrs
Klebsiella pneumoniae [4] = assay: as §1, with “complete liver lobule structure with radially arranged hepatic cords and visible central veins” for “reduction of bacterial load in kidney”, “days by HE staining based assay” for “days”; assay type: functional, organism-based; settings: time 2.0 day
[5] = Zinc chelation-dependent inhibition of NDM-1 (unknown origin) expressed in Escherichia coli DH5 alpha using meropenem as substrate preincubated with enzyme for 5 mins followed by substrate addition in the presence of zinc sulfate
Klebsiella pneumoniae [6] = assay: Antibacterial activity against NDM-producing carbapenem resistant Klebsiella pneumoniae infected in BALB/c mouse sepsis model assessed as swollen and degenerated liver cells with localized focal necrosis at 10 mg/kg, ip observed for 2 days by HE staining based assay; assay type: functional, organism-based; settings: time 2.0 day
Escherichia coli [7] = assay: Antibacterial activity against NDM-1 producing Escherichia coli DH5 alpha assessed as bacterial growth at 8 ug/ml incubated for 16 to 20 hrs by CLSI based microdilution method; assay type: functional; settings: dose 8 µg/ml; time 16-20 hrs
[8] = Toxicity in sheep RBC assessed as induction of hemolysis at 1024 microg/ml measured after 1 hr relative to control; assay type: tissue-based, Ovis aries, Erythrocyte; settings: sheep red blood cells, at 1024 µg/mL, read-out: Activity
[9] = Acute toxicity in BALB/c mouse assessed as change in hemoglobin level at 50 mg/kg, ip administered as single dose measured after 24 hrs; assay type: organism-based; settings: in vivo
[10] = Toxicity in sheep RBC assessed as induction of hemolysis measured after 1 hr; assay type: tissue-based, Ovis aries, Erythrocyte; settings: sheep red blood cells
[11] = Acute toxicity in BALB/c mouse assessed as survival rate at 10 to 50 mg/kg, ip administered as single dose measured for 72 hrs; assay type: organism-based; settings: in vivo, dose 10-50 mg/kg
Klebsiella pneumoniae [12] = assay: Antibiotic adjuvant activity against meropenem-treated NDM-producing carbapenem resistant Klebsiella pneumoniae infected in BALB/c mouse sepsis model assessed as mouse rescue at 10 mg/kg, ip in the presence of meropenem measured after 48 hrs; assay type: functional
Klebsiella pneumoniae [13] = assay: Antibacterial activity against MBL producing Klebsiella pneumoniae isolates assessed as inhibition of bacterial growth at 64 ug/ml incubated for 16 to 20 hrs by CLSI based microdilution method; assay type: functional, organism-based; settings: dose 64.0 µg/ml, time 16-20 hrs
Escherichia coli [14] = assay: Antibiotic adjuvant activity against meropenem-treated NDM-1 producing Escherichia coli DH5 alpha assessed as inhibition of bacterial growth at 8 ug/ml incubated for 16 to 20 hrs in the presence of meropenem and 100 uM zinc sulfate by CLSI based microdilution method; assay type: functional, organism-based; settings: dose 8.0 µg/ml, time 16-20 hrs
Escherichia coli [15] = assay: Synergistic antibacterial activity against NDM-1 producing Escherichia coli DH5alpha assessed as fractional inhibitory concentration index incubated for 16 to 20 hrs in presence of meropenem by checkerboard assay; assay type: functional, DH5[alpha]; settings: time 16-20 hrs
[16] = Acute toxicity in BALB/c mouse assessed as change in creatinine level in serum at 50 mg/kg, ip administered as single dose measured after 24 hrs; assay type: organism-based; settings: in vivo
Escherichia coli [17] = assay: Antibiotic adjuvant activity against NDM-1 producing Escherichia coli DH5alpha assessed as potentiation of meropenem-induced antibacterial activity by measuring fold reduction in meropenem MIC at 16 ug/ml incubated for 16 to 20 hrs by checkerboard assay; assay type: functional, DH5[alpha]; settings: dose 16 µg/ml; time 16-20 hrs
[18] = Zinc chelation-dependent inhibition of IMP-1 (unknown origin) expressed in Escherichia coli DH5 alpha using imipenem as substrate preincubated with enzyme for 5 mins followed by substrate addition in the presence of zinc sulfate
GES1 = assay: Cytotoxicity against human GES1 cells assessed as live cells by measuring green fluorescence at 32 ug/ml measured after 24 hrs by calceinAM/propidium iodide staining based fluorescence microscopy; assay type: cell-based; settings: ges1, 24 h, dose 32 µg/ml
Escherichia coli [19] = assay: Antibiotic adjuvant activity against VIM-1 producing Escherichia coli DH5alpha assessed as potentiation of meropenem-induced antibacterial activity incubated for 16 to 20 hrs by agar disc diffusion assay; assay type: functional, organism-based; settings: DH5[alpha], time 16-20 hrs
Klebsiella pneumoniae [20] = assay: Antibacterial activity against NDM-producing carbapenem resistant Klebsiella pneumoniae infected in BALB/c mouse sepsis model assessed as animal survival at 10 mg/kg, ip measured after 48 hrs; assay type: functional, organism-based
Escherichia coli [21] = assay: Antibacterial activity against VIM-1 producing Escherichia coli DH5alpha assessed as decrease in bacterial growth incubated for 16 to 20 hrs by CLSI based microdilution method; assay type: functional; settings: DH5[alpha], time 16-20 hrs
Klebsiella pneumoniae [22] = assay: as §1, with “reduction in neutrophil infiltration in red pulp” for “reduction”, “spleen” for “bacterial load in kidney”, “days by HE staining based assay” for “days”; assay type: functional, organism-based; settings: time 2.0 day
Pseudomonas aeruginosa = assay: Antibacterial activity against MBL producing Pseudomonas aeruginosa isolates assessed as inhibition of bacterial growth at 64 ug/ml incubated for 16 to 20 hrs by CLSI based microdilution method; assay type: functional, organism-based; settings: dose 64.0 µg/ml, time 16-20 hrs
Escherichia coli [23] = assay: Antibacterial activity against NDM-1 producing Escherichia coli DH5alpha assessed as decrease in bacterial growth incubated for 16 to 20 hrs by CLSI based microdilution method; assay type: functional; settings: DH5[alpha], time 16-20 hrs
[24] = Acute toxicity in BALB/c mouse assessed as pathological changes in spleen at 50 mg/kg, ip administered as single dose measured after 24 hrs by hematoxylin and eosin staining based assay; assay type: organism-based; settings: in vivo
Escherichia coli [25] = assay: Antibiotic adjuvant activity against meropenem-treated VIM-1 producing Escherichia coli DH5 alpha assessed as inhibition of bacterial growth at 8 ug/ml incubated for 16 to 20 hrs in the presence of meropenem and 1 to 10 uM zinc sulfate by CLSI based microdilution method; assay type: functional, organism-based; settings: dose 8.0 µg/ml, time 16-20 hrs
Escherichia coli [26] = assay: Antibiotic adjuvant activity against meropenem-treated IMP-4 producing Escherichia coli DH5 alpha assessed as bacterial growth at 8 ug/ml incubated for 16 to 20 hrs in the presence of meropenem and 100 uM zinc sulfate by CLSI based microdilution method; assay type: functional; settings: dose 8 µg/ml; time 16-20 hrs
[27] = Acute toxicity in BALB/c mouse assessed as change in RBC count at 50 mg/kg, ip administered as single dose measured after 24 hrs; assay type: organism-based; settings: in vivo
[28] = Zinc chelation-dependent inhibition of IMP-4 (unknown origin) expressed in Escherichia coli BL21 (DE3) using imipenem as substrate preincubated with enzyme for 5 to 10 mins followed by substrate addition
[29] = Acute toxicity in BALB/c mouse assessed as change in mean corpuscular volume at 50 mg/kg, ip administered as single dose measured after 24 hrs; assay type: organism-based; settings: in vivo
Escherichia coli [30] = assay: Antibacterial activity against IMP-4 producing Escherichia coli DH5alpha assessed as decrease in bacterial growth incubated for 16 to 20 hrs by CLSI based microdilution method; assay type: functional; settings: DH5[alpha], time 16-20 hrs
[31] = Zinc chelation-dependent inhibition of VIM-2 (unknown origin) expressed in Escherichia coli DH5 alpha using nitrocefin as substrate preincubated with enzyme for 5 mins followed by substrate addition in presence of zinc sulfate

Q: Which Activity (Klebsiella pneumoniae [1]) does the source give for C[C@@H](C(=O)O)N(Cc1cccc(C(=O)O)n1)Cc1cccc(C(=O)O)n1 here?
A: The Activity was “Active”.

Q: What about the Activity (Escherichia coli [2]) of the same compound?
A: The Activity was “Active”.

Q: What about the Activity (Escherichia coli [3]) of the same compound?
A: The Activity was 95%.

Q: And the Activity (Klebsiella pneumoniae [4])?
A: The Activity was “Active”.

Q: And the Activity [5]?
A: The Activity was “inactive”.

Q: And the Activity (Klebsiella pneumoniae [6])?
A: Its Activity is “inactive”.

Q: What about the Activity (Escherichia coli [7]) of the same compound?
A: Its Activity is 95%.

Q: What about the hemolysis at 1 h, 1024 microg/ml [8] of the same compound?
A: Its hemolysis at 1 h, 1024 microg/ml is less than 7%.

Q: And the Activity [9]?
A: The Activity was “Non-Toxic”.

Q: And the HC50 at 1 h [10]?
A: The HC50 at 1 h was greater than 1020 µg/mL.

Q: And the survival at 72 h [11]?
A: Its survival at 72 h is 100%.

Q: What about the Activity (Klebsiella pneumoniae [12]) of the same compound?
A: The Activity was 83%.

Q: And the Activity (Klebsiella pneumoniae [13])?
A: The Activity was “inactive”.

Q: What about the Activity (Escherichia coli [14]) of the same compound?
A: Its Activity is “inactive”.

Q: And the “fractional inhibitory concentration index (FICI)” value (Escherichia coli [15])?
A: Its value is 0.07.

Q: And the Activity [16]?
A: The Activity was “Non-Toxic”.

Q: And the “fold change (FC)” value (Escherichia coli [17])?
A: The value was greater than 1000.

Q: And the Activity [18]?
A: The Activity was “inactive”.

Q: And the Activity (GES1)?
A: Its Activity is “Non-Toxic”.

Q: What about the Activity (Escherichia coli [19]) of the same compound?
A: The Activity was “Active”.

Q: And the Activity (Klebsiella pneumoniae [20])?
A: The Activity was “inactive”.

Q: What about the MIC (Escherichia coli [21]) of the same compound?
A: The MIC was 128 µg/mL (≈ 356 µM).

Q: And the Activity (Klebsiella pneumoniae [22])?
A: Its Activity is “Active”.

Q: What about the Activity (Pseudomonas aeruginosa) of the same compound?
A: The Activity was “inactive”.

Q: And the MIC (Escherichia coli [23])?
A: The MIC was 128 µg/mL (≈ 356 µM).

Q: What about the Activity [24] of the same compound?
A: The Activity was “Non-Toxic”.

Q: And the Activity (Escherichia coli [25])?
A: Its Activity is “Active”.

Q: And the Activity (Escherichia coli [26])?
A: Its Activity is 100%.

Q: And the Activity [27]?
A: The Activity was “Non-Toxic”.

Q: And the IC50 [28]?
A: Its IC50 is 4.17 µM.

Q: What about the Activity [29] of the same compound?
A: The Activity was “Non-Toxic”.

Q: What about the MIC (Escherichia coli [30]) of the same compound?
A: Its MIC is 128 µg/mL (≈ 356 µM).

Q: And the Activity [31]?
A: The Activity was “inactive”.

Q: Which Activity (Klebsiella pneumoniae [1]) does the source give for C[C@H](C(=O)O)N(Cc1cccc(C(=O)O)n1)Cc1cccc(C(=O)O)n1 here?
A: Its Activity is “Active”.

Q: What about the Activity (Escherichia coli [2]) of the same compound?
A: The Activity was “Active”.

Q: What about the Activity (Escherichia coli [3]) of the same compound?
A: The Activity was 95%.

Q: What about the Activity (Klebsiella pneumoniae [4]) of the same compound?
A: The Activity was “Active”.

Q: What about the Activity [5] of the same compound?
A: Its Activity is “inactive”.

Q: What about the Activity (Klebsiella pneumoniae [6]) of the same compound?
A: The Activity was “inactive”.

Q: And the Activity (Escherichia coli [7])?
A: Its Activity is 95%.

Q: What about the hemolysis at 1 h, 1024 microg/ml [8] of the same compound?
A: The hemolysis at 1 h, 1024 microg/ml was less than 7%.

Q: And the Activity [9]?
A: The Activity was “Non-Toxic”.

Q: What about the HC50 at 1 h [10] of the same compound?
A: The HC50 at 1 h was greater than 1020 µg/mL.

Q: And the survival at 72 h [11]?
A: The survival at 72 h was 100%.

Q: What about the Activity (Klebsiella pneumoniae [12]) of the same compound?
A: Its Activity is 83%.

Q: What about the Activity (Klebsiella pneumoniae [13]) of the same compound?
A: Its Activity is “inactive”.

Q: And the Activity (Escherichia coli [14])?
A: Its Activity is “inactive”.

Q: What about the “fractional inhibitory concentration index (FICI)” value (Escherichia coli [15]) of the same compound?
A: The value was 0.07.

Q: What about the Activity [16] of the same compound?
A: The Activity was “Non-Toxic”.

Q: And the “fold change (FC)” value (Escherichia coli [17])?
A: Its value is greater than 1000.

Q: And the Activity [18]?
A: Its Activity is “inactive”.

Q: And the Activity (GES1)?
A: The Activity was “Non-Toxic”.

Q: And the Activity (Escherichia coli [19])?
A: Its Activity is “Active”.

Q: And the Activity (Klebsiella pneumoniae [20])?
A: The Activity was “inactive”.

Q: And the MIC (Escherichia coli [21])?
A: Its MIC is 128 µg/mL (≈ 356 µM).

Q: What about the Activity (Klebsiella pneumoniae [22]) of the same compound?
A: The Activity was “Active”.

Q: What about the Activity (Pseudomonas aeruginosa) of the same compound?
A: Its Activity is “inactive”.

Q: What about the MIC (Escherichia coli [23]) of the same compound?
A: The MIC was 128 µg/mL (≈ 356 µM).

Q: And the Activity [24]?
A: The Activity was “Non-Toxic”.

Q: And the Activity (Escherichia coli [25])?
A: Its Activity is “Active”.

Q: What about the Activity (Escherichia coli [26]) of the same compound?
A: Its Activity is 100%.

Q: And the Activity [27]?
A: Its Activity is “Non-Toxic”.

Q: And the IC50 [28]?
A: The IC50 was 4.4 µM.

Q: And the Activity [29]?
A: The Activity was “Non-Toxic”.

Q: What about the MIC (Escherichia coli [30]) of the same compound?
A: The MIC was 128 µg/mL (≈ 356 µM).

Q: What about the Activity [31] of the same compound?
A: Its Activity is “inactive”.
